Experimental data taken from patent US20190240172A1, “PHARMACEUTICAL COMPOSITION FOR PREVENTING OR TREATING DIABETES AND/OR […] COMPRISING MIDODRINE OR PHARMACEUTICALLY ACCEPTABLE SALT THEREOF AS ACTIVE INGREDIENT” (Cellvertics Co., Ltd., priority 2016, published 2019).
Marks after values point to notes of the source that are not given here.

Legend:
[1] = tested on: mouse skeletal muscle cells (C2C12); experiment: Western blot of p-AMPK and PPAR-δ in midodrine-treated skeletal muscle cells; type: cell-based; conditions: FIG. 1
Description: (§1) The L6 and HL1 cells were grown in a medium (DMEM) containing 10% FBS (fetal bovine serum) and 1% antibiotic until about 80% confluence, and then the medium was replaced with a medium containing 1% FBS for differentiation for 4 days. The drug was treated on day 3 of differentiation. All in-vitro experiments using the L6 and HL1 cells were conducted 24 hours after the drug treatment.
(§2) In order to investigate the effect of α1-AR stimulation on AMPK and AMPK phosphorylation (activation) in vitro, the mouse skeletal muscle cells […] and the mouse cardiac muscle cells (HL1) cultured in Example 1-1 were treated with 30 μM of midodrine, which is an α1-AR agonist, and then western blot was conducted as described in Example 2-3.

[2] = tested on: mouse cardiac muscle cells (HL1); experiment: Western blot of p-AMPK and PPAR-δ in midodrine-treated cardiac muscle cells; type: cell-based; conditions: FIG. 1
Description: as §1, §2

[3] = tested on: SDH (succinate dehydrogenase); experiment: Enzymatic activity of SDH in skeletal muscle of SHR; type: in vivo, spontaneously hypertensive rat (SHR); conditions: among groups I-IV, FIG. 3A
Description: After adding 10 μL of protease inhibitor cocktail per 1 mL of PBS (phosphate-buffered saline) to each well (500 μL), 410 μL of a culture solution prepared by mixing 1 M phosphate buffer (25 μL×25=625 μL), 0.2 M sodium succinate (125 μL×25=3125 μL), NBT (25 μL×25=625 μL) and D.W. (235 μL×25=5875 μL) per well was heated to 37° C. for 20 minutes. […] After conducting centrifugation at 13000 rpm and 4° C. for 5 minutes, the supernatant was recovered and transferred to a fresh tube. After adding 410 μL of a culture solution to a tube, enzymatic reaction was conducted by adding 90 μL of the sample. After adding 410 μL of distilled water (DW) to another tube and adding 90 μL of the sample, the absorbance of the dilute was measured. After adding the enzymatic reaction tube and the another tube in water bath at 37° C., respectively, reaction was conducted for 30 minutes. The reaction was terminated by putting the tube in ice. After adding 200 μL to each well of a 96-well plate, absorbance was measured at 550 nm. Then, the enzymatic activity of succinate dehydrogenase (SDH) was measured by the following equation.
Enzymatic activity=(absorbance of enzymatic reaction solution−absorbance of diluted enzymatic reaction solution)/protein content (Bradford 595 nm)

cytochrome c oxidase = experiment: Immunohistochemical staining for cytochrome c oxidase in skeletal muscle tissue of SHR; type: in vivo, spontaneously hypertensive rat (SHR); conditions: among groups I-IV, FIG. 3B
[4] = ATP level in tissue by ELISA; type: in vivo, spontaneously hypertensive rat (SHR); conditions: SHR, compared to control SHRs, FIG. 4
Description: 0.02 g of liver tissue isolated from the rats of Example 1-2 was homogenized in 500 μL of PBS. The homogenate was centrifuged at 1500×g (or 5000 rpm) for 15 minutes and the supernatant was recovered. After adding 100 μL of standard materials or samples to adequate wells of a pre-coated microtiter plate, 10 μL of the remaining solution was added to the sample. After adding 50 μL of the conjugate to each well and then mixing, the plate was covered and incubation was conducted at 37° C. for 1 hour. After adding 50 μL of each of substrates A and B to each well, incubation was conducted at 37° C. for 15 minutes. After adding a stop solution to each well, optical density was measured at 450 nm using a microplate reader.
The ATP level in the heart, skeletal muscle and liver of basal 4-week-old rat (I), midodrine-administered rat (II), atenolol-administered rat (III) and unadministered 8-week-old control rat (IV) was measured by ELISA according to the method of Example 2-1.

[5] = Blood adiponectin by ELISA, normalized to visceral fat weight; type: in vivo, spontaneously hypertensive rat (SHR); conditions: SHR, 4 weeks in drinking water, mean ± SD
Text: The measured adiponectin level was normalized to the visceral fat weight (g).

[6] = tested on: HMG-CoA reductase protein (HMGCR); experiment: Expression of HMG-CoA reductase protein in liver of SHR; type: in vivo, spontaneously hypertensive rat (SHR); conditions: among rat groups, FIG. 7
[7] = tested on: mouse-derived preadipocytes (3T3-L1); experiment: Fat content in adipocytes observed by microscope; type: cell-based; conditions: FIG. 8A
Description: (§3) The 3T3-L1 cells were grown in a medium (DMEM) containing 10% FBS (fetal bovine serum) and 1% antibiotic until 100% and then cultured for 48 hours after replacing the medium with a fresh medium. After adding a differentiation medium and the drug, the cells were cultured for 48 hours. The composition of the differentiation medium was as follows: 0.0125 μmol/mL dexamethasone, 12.5 μmol/mL 3-isobutyl-1-methylxanthine, 10 μg/mL insulin, 10% FBS. After treating with the differentiation medium for 48 hours, the medium was replaced with an insulin medium containing 10 μg/mL insulin and 10% FBS and then treated for 48-96 hours. Then, after replacing the medium with a normal medium containing 10% FBS only, the cells were cultured for 24-48 hours and then used for experiments.

preadipocytes (3T3-L1) = experiment: Western blot of PPAR-δ, p-AMPK and PGC-1α in midodrine-treated adipocytes; type: cell-based, mouse; conditions: midodrine-treated adipocytes (3T3-L1), FIG. 8B
Description: as §3
In addition, when western blotting was conducted on the midodrine-treated adipocytes according to the method of Example 2-3, the expression of […], p-AMPK and PGC-1α proteins suppressing fat synthesis/accumulation was increased as shown in FIG. 8B.

[8] = Body weight, heart weight and abdominal fat weight in SHR; type: in vivo, spontaneously hypertensive rat (SHR)
Description: Body weight was measured for the same rats whose cardiac function was measured.
When the body weight and the weight of abdominal fat (visceral fat) were measured for the midodrine-administered rat (II), atenolol-administered rat (III) and unadministered 8-week-old hypertensive control rat (IV) of Example 1-2, midodrine administration decreased both the body weight and abdominal fat as shown in FIG. 9.

[9] = tested on: spontaneously hypertensive rat (SHR); experiment: Cardiac function by M-mode echocardiography and heart rate in SHR; conditions: for Diastolic left ventricular inner diameter / Diastolic left ventricular posterior wall / Diastolic left ventricular wall / Left ventricular ejection fraction / Left ventricular fractional shortening / Left ventricular mass measured by ASE / Systolic left ventricular inner diameter / left ventricular performance: 8-week-old SHR, echocardiography; for Diastolic left ventricular inner diameter / Diastolic left ventricular posterior wall / Diastolic left ventricular wall / Left ventricular ejection fraction / Left ventricular fractional shortening / Left ventricular mass measured by ASE / Systolic left ventricular inner diameter: 4 weeks in drinking water (midodrine 0.3 mg/kg/day, atenolol 1 mg/kg/day), mean ± SD; for left ventricular performance: compared with unadministered control group IV
[10] = tested on: AMPK/PPAR-δ/PGC1α proteins; experiment: Western blot of AMPK, PPAR-δ and PGC-1α proteins in cardiac muscle, skeletal muscle, fat and liver of SHR
[11] = 8-week-old SHR, 4 weeks in drinking water (midodrine 0.3 mg/kg/day, atenolol 1 mg/kg/day), mean ± SD

Structure (SMILES) | ATP level in heart tissue [4] | Adiponectin (serum level per weight of visceral fat) [5] | expression level of HMG-CoA reductase protein (HMGCR) in the liver [6] | Body weight [8, 11] | Hear weight [8, 11] | Diastolic left ventricular inner diameter [9] | Diastolic left ventricular posterior wall [9] | Diastolic left ventricular wall [9] | Left ventricular ejection fraction [9] | Left ventricular fractional shortening [9] | Left ventricular mass measured by ASE [9] | Systolic left ventricular inner diameter [9] | left ventricular performance [9] | other results
COc1ccc(OC)c(C(O)CNC(=O)CN)c1 (racemic) [Midodrine, (RS)—N-[2-(2,5-dimethoxyphenyl)-2-hydroxyethyl]glycinamide] | higher | 7585.8 ± 182.3^b ng/mL/g | the lowest | 238.24 ± 11.69^a g | 1.47 ± 0.16^a g | 6.06 ± 0.42^a mm | 1.54 ± 0.13^a mm | 1.46 ± 0.13^a mm | 81.55 ± 6.12^a % | 45.48 ± 6.25^a % | 1.04 ± 0.06 g | 3.32 ± 0.54^a mm | higher | expression of PPAR-δ protein [1]: increases; expression of phosphorylated AMPK ([1]; midodrine 30 μM): increased; expression of PPAR-δ protein [2]: increases; expression and phosphorylation of AMPK ([2]; midodrine 30 μM): resulted in the expression and phosphorylation of AMPK; enzymatic activity of SDH in skeletal muscle [3]: the highest increase; cytochrome c oxidase immunohistochemical staining in skeletal muscle tissue (cytochrome c oxidase): the highest increase; Adiponectin (serum level per weight of visceral fat) ([5]; listed as group II): remarkably higher; fat content in adipocytes ([7]; 3T3-L1, 30 μM/L midodrine, microscope): decreased; expression of PGC-1α protein (preadipocytes (3T3-L1)): increased; expression of PPAR-5 protein (preadipocytes (3T3-L1)): increased; expression of p-AMPK protein (preadipocytes (3T3-L1)): increased; Body weight ([8]; SHR groups II, III and IV, FIG. 9 (A)): decreased; weight of abdominal fat (visceral fat) ([8]; SHR groups II, III and IV, FIG. 9 (B)): decreased; Left ventricular mass measured by ASE ([9]; listed as group II): the lowest; cardiac hypertrophy or further increase in blood pressure ([9]; SHR, summary statement, no blood pressure method described): without cardiac hypertrophy or further increase in blood pressure; AMPK expression in cardiac muscle ([10]; 4 weeks in drinking water, compared to control group IV, FIG. 2B): remarkably higher; AMPK expression in skeletal muscle ([10]; 4 weeks in drinking water, compared to control group IV, FIG. 2C): remarkably higher; AMPK expression in fat ([10]; 4 weeks in drinking water, compared to control group IV, FIG. 2D): remarkably higher; expression level of the phosphorylated AMPK protein in the liver ([10]; among groups I-IV, FIG. 2E): the highest; activation and expression of AMPK, PPAR-δ and PGC-1α in the heart, skeletal muscle and liver ([10]; summary statement): induces activation and increased expression
CC(C)NCC(O)COc1ccc(CC(N)=O)cc1 (stereo not shown) [Atenolol, atenolol] | higher | 6136.5 ± 574.7^b,c ng/mL/g | the lowest | 296.46 ± 16.73^b g | 1.47 ± 0.15^a g | 6.33 ± 0.35^a mm | 1.67 ± 0.16 mm | 1.50 ± 0.13^a mm | 82.00 ± 5.31^a % | 45.70 ± 5.82^a % | 1.10 ± 0.07^a g | 3.43 ± 0.28^a mm | higher | Body weight ([8]; 8-week-old SHR, 4 weeks in drinking water (midodrine 0.3 mg/kg/day, atenolol 1 mg/kg/day), mean ± SD, listed as group III): the highest; heart rate ([9]; SHR from 4 weeks of age, measured over 1 month, at the end of the experiment, among three groups, FIG. 6): the lowest
COC(=O)c1sccc1S(=O)(=O)Nc1ccc(Nc2ccccc2)cc1OC [GSK0660] |  |  |  |  |  |  |  |  |  |  |  |  |  | effect on fat content in adipocytes when GSK0660 is added to midodrine ([7]; 3T3-L1, 30 μM/L midodrine + 50 μM/L GSK0660 mixture (1:2 (w/w))): the effect of midodrine was decreased
